In patent US20240108006A1, “PESTICIDALLY ACTIVE HETEROAROMATIC COMPOUNDS” (SYNGENTA CROP PROTECTION AG, priority 2021, published 2024):

Legend:
Assay type in all cases: in vivo
Plutella xylostella = assay: Example B8: Plutella xylostella (diamond back moth), artificial diet 24-well, eggs; conditions: 192 h, application rate of 200 ppm, 8 days after infestation, read-out: effect in at least one of the two categories (mortality or growth inhibition)
Summary of the method: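 Artificial diet in 24-well plates treated with aqueous dilutions of DMSO stock (10,000 ppm stock) and dried, then infested with Plutella eggs. Mortality and growth inhibition scored versus untreated samples 8 days after infestation.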

Chilo suppressalis = assay: Example B1: Chilo suppressalis (striped rice stemborer), artificial diet, L2 larvae; conditions: 144 h, application rate of 200 ppm, 6 days after infestation, read-out: control in at least one of the three categories (mortality, anti-feedant effect, or growth inhibition)
Summary of the method: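 Artificial diet was treated with aqueous test solutions made from 10,000 ppm DMSO stocks, dried, then infested with L2 larvae (6-8 per well). Mortality, anti-feeding effect and growth inhibition were scored against untreated samples 6 days after infestation, and control was counted when any category exceeded untreated.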

Diabrotica balteata = assay: Example B2: Diabrotica balteata (corn root worm), maize sprouts, L2 larvae; conditions: 96 h, application rate of 200 ppm, 4 days after infestation, read-out: control in at least one of the two categories (mortality or growth inhibition)
Experimental: Example B2: Diabrotica balteata (Corn Root Worm)
Maize sprouts placed onto an agar layer in 24-well microtiter plates were treated with aqueous test solutions prepared from 10,000 ppm DMSO stock solutions by spraying. After drying, the plates were infested with L2 larvae (6 to 10 per well). The samples were assessed for mortality and growth inhibition in comparison to untreated samples 4 days after infestation.
(§1) The following compounds gave an effect of at least 80% control in at least one of the two categories (mortality or growth inhibition) at an application rate of 200 ppm: […]

Myzus persicae [1] = assay: Example B7: Myzus persicae (green peach aphid), intrinsic activity, sucrose solution 24-well; conditions: 120 h, application rate of 12.5 ppm, 5 days after infestation, read-out: control (mortality)
Summary of the method: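 Compounds from 10,000 ppm DMSO stocks were mixed into sucrose solution in wells at a rate of 12.5 ppm. Aphid-infested pea seedlings were placed on a Parafilm membrane over the solution, so aphids fed through it. Mortality was scored 5 days after infestation.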

Myzus persicae [2] = assay: Example B5: Myzus persicae (green peach aphid), feeding/contact activity; conditions: 144 h, application rate of 200 ppm, 6 days after infestation
Experimental: Example B5: Myzus persicae (Green Peach Aphid):Feeding/Contact Activity
Sunflower leaf discs were placed onto agar in a 24-well microtiter plate and sprayed with aqueous test solutions prepared from 10,000 ppm DMSO stock solutions. After drying, the leaf discs were infested with an aphid population of mixed ages. The samples were assessed for mortality 6 days after infestation.

Spodoptera littoralis = assay: Example B9: Spodoptera littoralis (Egyptian cotton leaf worm), cotton leaf discs, L1 larvae; conditions: foliar, 72 h, application rate of 200 ppm, 3 days after infestation, read-out: control in at least one of the three categories (mortality, anti-feedant effect, or growth inhibition)
Summary of the method: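 Cotton leaf discs on agar sprayed with aqueous test solutions from 10,000 ppm DMSO stocks, dried, then infested with five L1 larvae. Mortality, anti-feeding and growth inhibition scored against untreated samples 3 days after infestation.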

Euschistus heros = assay: Example B3: Euschistus heros (neotropical brown stink bug), soybean leaves, N2 nymphs; conditions: 120 h, application rate of 200 ppm, 5 days after infestation, read-out: control in at least one of the two categories (mortality or growth inhibition)
Experimental: Example B3: Euschistus heros (Neotropical Brown Stink Bug)
Soybean leaves on agar in 24-well microtiter plates were sprayed with aqueous test solutions prepared from 10,000 ppm DMSO stock solutions. After drying the leaves were infested with N2 nymphs. The samples were assessed for mortality and growth inhibition in comparison to untreated samples 5 days after infestation.
as §1

C[C@H](NC(=O)N(C)c1cc(OC(F)(F)C(F)F)c(Cl)cc1Cl)c1ncnn1-c1ncccn1 [Example P176, 1-[2,4-dichloro-5-(1,1,2,2-tetrafluoroethoxy)phenyl]-1-methyl-3-[(1S)-1-(2-pyrimidin-2-yl-1,2,4-triazol-3-yl)ethyl]urea]
≥ 80%: percent effect (mortality or growth inhibition) at 200 ppm (Plutella xylostella) | percent control (mortality, anti-feedant effect or growth inhibition) at 200 ppm (Chilo suppressalis) | percent control (mortality or growth inhibition) at 200 ppm (Diabrotica balteata) | mortality at 12.5 ppm (Myzus persicae [1]) | mortality at 200 ppm (Myzus persicae [2]) | percent control (mortality, anti-feedant effect or growth inhibition) at 200 ppm (Spodoptera littoralis)

C[C@H](NC(=O)Nc1cc(C#N)c(Cl)cc1F)c1ncnn1-c1ncccn1 [Example P182, 1-(4-chloro-5-cyano-2-fluoro-phenyl)-3-[(1S)-1-(2-pyrimidin-2-yl-1,2,4-triazol-3-yl)ethyl]urea]
≥ 80%: percent effect (mortality or growth inhibition) at 200 ppm (Plutella xylostella) | percent control (mortality, anti-feedant effect or growth inhibition) at 200 ppm (Chilo suppressalis) | mortality at 12.5 ppm (Myzus persicae [1]) | percent control (mortality, anti-feedant effect or growth inhibition) at 200 ppm (Spodoptera littoralis) | percent control (mortality or growth inhibition) at 200 ppm (Euschistus heros)

C[C@H](NC(=O)Nc1cc(C#N)c(F)cc1F)c1ncnn1-c1ncccn1 [Example P391, 1-(5-cyano-2,4-difluoro-phenyl)-3-[(1S)-1-(2-pyrimidin-2-yl-1,2,4-triazol-3-yl)ethyl]urea]
≥ 80%: percent control (mortality, anti-feedant effect or growth inhibition) at 200 ppm (Chilo suppressalis) | mortality at 12.5 ppm (Myzus persicae [1]) | percent control (mortality or growth inhibition) at 200 ppm (Euschistus heros)

C[C@H](NC(=O)Nc1cnc(Br)cc1Br)c1ncnn1-c1ccc(C#N)cn1 [Example P255, 1-[(1S)-1-[2-(5-cyano-2-pyridyl)-1,2,4-triazol-3-yl]ethyl]-3-(4,6-dibromo-3-pyridyl)urea]
≥ 80%: percent effect (mortality or growth inhibition) at 200 ppm (Plutella xylostella) | percent control (mortality, anti-feedant effect or growth inhibition) at 200 ppm (Chilo suppressalis) | percent control (mortality, anti-feedant effect or growth inhibition) at 200 ppm (Spodoptera littoralis) | percent control (mortality or growth inhibition) at 200 ppm (Euschistus heros)

C[C@H](NC(=O)Nc1cnc(Br)cc1Br)c1ncnn1-c1ncccn1 [Example P55, 1-(4,6-dibromo-3-pyridyl)-3-[(1S)-1-(2-pyrimidin-2-yl-1,2,4-triazol-3-yl)ethyl]urea]
≥ 80%: percent effect (mortality or growth inhibition) at 200 ppm (Plutella xylostella) | percent control (mortality, anti-feedant effect or growth inhibition) at 200 ppm (Chilo suppressalis) | mortality at 12.5 ppm (Myzus persicae [1]) | percent control (mortality, anti-feedant effect or growth inhibition) at 200 ppm (Spodoptera littoralis) | percent control (mortality or growth inhibition) at 200 ppm (Euschistus heros)

C[C@H](NC(=O)Nc1cc(C(F)(F)F)c(Br)cc1Br)c1ncnn1-c1ncccn1 [Example P205, 1-[2,4-dibromo-5-(trifluoromethyl)phenyl]-3-[(1S)-1-(2-pyrimidin-2-yl-1,2,4-triazol-3-yl)ethyl]urea]
≥ 80%: percent effect (mortality or growth inhibition) at 200 ppm (Plutella xylostella) | percent control (mortality, anti-feedant effect or growth inhibition) at 200 ppm (Chilo suppressalis) | percent control (mortality or growth inhibition) at 200 ppm (Diabrotica balteata) | mortality at 12.5 ppm (Myzus persicae [1]) | mortality at 200 ppm (Myzus persicae [2]) | percent control (mortality, anti-feedant effect or growth inhibition) at 200 ppm (Spodoptera littoralis)

C[C@H](NC(=O)Nc1cc(OC(F)(F)C(F)F)c(Cl)cc1Cl)c1nccnc1-c1ncccn1 [Example P135, 1-[2,4-dichloro-5-(1,1,2,2-tetrafluoroethoxy)phenyl]-3-[(1S)-1-(3-pyrimidin-2-ylpyrazin-2-yl)ethyl]urea]
≥ 80%: percent effect (mortality or growth inhibition) at 200 ppm (Plutella xylostella) | percent control (mortality, anti-feedant effect or growth inhibition) at 200 ppm (Chilo suppressalis) | percent control (mortality or growth inhibition) at 200 ppm (Diabrotica balteata) | mortality at 12.5 ppm (Myzus persicae [1]) | mortality at 200 ppm (Myzus persicae [2]) | percent control (mortality, anti-feedant effect or growth inhibition) at 200 ppm (Spodoptera littoralis)

C[C@H](NC(=O)Nc1ccc(C(F)(F)F)nc1Cl)c1ncnn1-c1ncccn1 [Example P18, 1-[2-chloro-6-(trifluoromethyl)-3-pyridyl]-3-[(1S)-1-(2-pyrimidin-2-yl-1,2,4-triazol-3-yl)ethyl]urea]
≥ 80%: mortality at 12.5 ppm (Myzus persicae [1]) | percent control (mortality, anti-feedant effect or growth inhibition) at 200 ppm (Spodoptera littoralis) | percent control (mortality or growth inhibition) at 200 ppm (Euschistus heros)

C[C@@H](c1ncnn1-c1ncccn1)N(C)C(=O)N(C)c1cc(OC(F)(F)C(F)F)c(Cl)cc1Cl [Example P132, 1-[2,4-dichloro-5-(1,1,2,2-tetrafluoroethoxy)phenyl]-1,3-dimethyl-3-[(1S)-1-(2-pyrimidin-2-yl-1,2,4-triazol-3-yl)ethyl]urea]
≥ 80%: percent effect (mortality or growth inhibition) at 200 ppm (Plutella xylostella) | percent control (mortality, anti-feedant effect or growth inhibition) at 200 ppm (Chilo suppressalis) | percent control (mortality or growth inhibition) at 200 ppm (Diabrotica balteata) | mortality at 12.5 ppm (Myzus persicae [1]) | mortality at 200 ppm (Myzus persicae [2]) | percent control (mortality, anti-feedant effect or growth inhibition) at 200 ppm (Spodoptera littoralis)

C[C@H](NC(=O)Nc1ccc(C(F)(F)F)cc1I)c1ncnn1-c1ncccn1 [Example P72, 1-[2-iodo-4-(trifluoromethyl)phenyl]-3-[(1S)-1-(2-pyrimidin-2-yl-1,2,4-triazol-3-yl)ethyl]urea]
≥ 80%: percent effect (mortality or growth inhibition) at 200 ppm (Plutella xylostella) | percent control (mortality, anti-feedant effect or growth inhibition) at 200 ppm (Chilo suppressalis) | mortality at 12.5 ppm (Myzus persicae [1]) | percent control (mortality, anti-feedant effect or growth inhibition) at 200 ppm (Spodoptera littoralis) | percent control (mortality or growth inhibition) at 200 ppm (Euschistus heros)

C[C@H](NC(=O)Nc1cc(OC(F)(F)C(F)F)c(Cl)cc1Cl)c1ncnn1-c1cnccn1 [Example P278, 1-[2,4-dichloro-5-(1,1,2,2-tetrafluoroethoxy)phenyl]-3-[(1S)-1-(2-pyrazin-2-yl-1,2,4-triazol-3-yl)ethyl]urea]
≥ 80%: percent effect (mortality or growth inhibition) at 200 ppm (Plutella xylostella) | percent control (mortality, anti-feedant effect or growth inhibition) at 200 ppm (Chilo suppressalis) | percent control (mortality or growth inhibition) at 200 ppm (Diabrotica balteata) | mortality at 12.5 ppm (Myzus persicae [1]) | mortality at 200 ppm (Myzus persicae [2]) | percent control (mortality, anti-feedant effect or growth inhibition) at 200 ppm (Spodoptera littoralis)

C[C@@H](c1ncnn1-c1ncccn1)N(C)C(=O)Nc1cc(OC(F)(F)C(F)F)c(Cl)cc1Cl [Example P133, 3-[2,4-dichloro-5-(1,1,2,2-tetrafluoroethoxy)phenyl]-1-methyl-1-[(1S)-1-(2-pyrimidin-2-yl-1,2,4-triazol-3-yl)ethyl]urea]
≥ 80%: percent effect (mortality or growth inhibition) at 200 ppm (Plutella xylostella) | percent control (mortality, anti-feedant effect or growth inhibition) at 200 ppm (Chilo suppressalis) | percent control (mortality or growth inhibition) at 200 ppm (Diabrotica balteata) | mortality at 12.5 ppm (Myzus persicae [1]) | mortality at 200 ppm (Myzus persicae [2]) | percent control (mortality, anti-feedant effect or growth inhibition) at 200 ppm (Spodoptera littoralis)

C[C@@H](c1ncnn1-c1ncccn1)N1COCN(c2cc(OC(F)(F)C(F)F)c(Cl)cc2Cl)C1=O [Example P137, 3-[2,4-dichloro-5-(1,1,2,2-tetrafluoroethoxy)phenyl]-5-[(1S)-1-(2-pyrimidin-2-yl-1,2,4-triazol-3-yl)ethyl]-1,3,5-oxadiazinan-4-one]
≥ 80%: percent effect (mortality or growth inhibition) at 200 ppm (Plutella xylostella) | percent control (mortality, anti-feedant effect or growth inhibition) at 200 ppm (Chilo suppressalis) | percent control (mortality or growth inhibition) at 200 ppm (Diabrotica balteata) | mortality at 12.5 ppm (Myzus persicae [1]) | mortality at 200 ppm (Myzus persicae [2]) | percent control (mortality, anti-feedant effect or growth inhibition) at 200 ppm (Spodoptera littoralis)

C[C@H](NC(=O)Nc1ccc(Br)cc1OC(F)F)c1ncnn1-c1ncccn1 [Example P58, 1-[4-bromo-2-(difluoromethoxy)phenyl]-3-[(1S)-1-(2-pyrimidin-2-yl-1,2,4-triazol-3-yl)ethyl]urea]
≥ 80%: percent effect (mortality or growth inhibition) at 200 ppm (Plutella xylostella) | percent control (mortality, anti-feedant effect or growth inhibition) at 200 ppm (Chilo suppressalis) | percent control (mortality or growth inhibition) at 200 ppm (Diabrotica balteata) | mortality at 12.5 ppm (Myzus persicae [1]) | mortality at 200 ppm (Myzus persicae [2]) | percent control (mortality, anti-feedant effect or growth inhibition) at 200 ppm (Spodoptera littoralis)
